We go through one compound from PMC11172478, “1,3,5-Triazine as Branching Connector for the Construction of Novel Antimicrobial Peptide Dendrimers: Synthesis and Biological Characterization” (International Journal of Molecular Sciences, 2024).

In the experiment the test system is P. aeruginosa ATCC 27853. In words: Time-kill curves. Type of experiment: cell-based. As to conditions: P. aeruginosa ATCC 27853, ½ MIC. The procedure: The death kinetics of the active dendrimers were examined by plotting their time-kill curves against E. coli ATCC 25922 and P. aeruginosa ATCC 27853. The dendrimers were added to a starting bacterial inoculum of 10^6 CFU/mL in 5 mL of MHBCA medium. Dendrimers were tested at three different concentrations: MIC, ½ MIC and ¼ MIC. They were incubated for 24 h at 37 °C with shaking at 200 rpm. Samples were aseptically collected at 0, 1, 2, 4 and 6 h, serially diluted in Ringer ¼ and plated on Tryptone soy agar for colony counting.
The response of the microbial strains to the dendrimers was determined based on a logarithmic decrease in viable bacteria. A compound was considered active if it caused a reduction of ≥1 log10 CFU/mL, compared to the corresponding counts at time 0 h. In addition, a dendrimer was considered bactericidal if it caused a reduction of ≥3 log10 CFU/mL [40].

With `CC(C)C[C@H](NC(=O)[C@H](CCCCN)NC(=O)[C@H](CC(C)C)NC(=O)[C@H](CCCCN)NC(=O)[C@H](CC(C)C)Nc1nc(NCCNC(=O)[C@H](CCCCN)NC(=O)[C@H](CC(C)C)NC(=O)[C@H](CCCCN)NC(=O)[C@H](CC(C)C)NC(=O)[C@H](CCCCN)NC(=O)[C@@H](N)CC(C)C)nc(NCCNC(=O)[C@H](CCCCN)NC(=O)[C@H](CC(C)C)NC(=O)[C@H](CCCCN)NC(=O)[C@H](CC(C)C)NC(=O)[C@H](CCCCN)NC(=O)[C@@H](N)CC(C)C)n1)C(=O)N[C@@H](CCCCN)C(N)=O` [Dendrimer 2, H-[(LK)3-EDA]2-TA-(LK)3-NH2], the “time-kill activity at ½ MIC (in words)” value is recorded as “higher antimicrobial activity than dendrimer 1”.
